Reference: PubChem BioAssay (NCI)
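How tested: cells in 96-well plates exposed to compound for 48 hours at five concentrations. TGI denotes the concentration required for complete inhibition of growth.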

How the values were obtained:
Experiment in all cases: NCI-60 cell line screen, 48 h
[1] = tested on: HCC-2998 colon
[2] = tested on: SW-620 colon
[3] = tested on: 786-0 renal
[4] = tested on: RXF 393 renal
[5] = tested on: HCT-15 colon
[6] = tested on: K-562 leukemia
[7] = tested on: UO-31 renal
[8] = tested on: M14 melanoma
[9] = tested on: HCT-116 colon
[10] = tested on: TK-10 renal
[11] = tested on: SF-539 CNS
[12] = tested on: A549 NSCLC
[13] = tested on: PC-3 prostate
[14] = tested on: MDA-MB-231 breast
[15] = tested on: OVCAR-8 ovarian
[16] = tested on: NCI/ADR-RES ovarian
[17] = tested on: MDA-MB-435
[18] = tested on: BT-549 breast
[19] = tested on: MALME-3M melanoma
[20] = tested on: UACC-62 melanoma

SMILES | TGI [1] [µM] | TGI [2] [µM] | TGI [3] [µM] | TGI [4] [µM] | TGI [5] [µM] | TGI [6] [µM] | TGI [7] [µM] | TGI [8] [µM] | TGI [9] [µM] | TGI [10] [µM] | TGI [11] [µM] | TGI [12] [µM] | TGI [13] [µM] | TGI [14] [µM] | TGI [15] [µM] | TGI [16] [µM] | TGI [17] [µM] | TGI [18] [µM] | TGI [19] [µM] | TGI [20] [µM]
O=C1N(CN2CCOCC2)CN(CN2CCOCC2)C(=O)N1Cc1ccc(-c2ccc(CN3C(=O)N(CN4CCOCC4)CN(CN4CCOCC4)C3=O)cc2)cc1 | 28.3 | 30.7 | 79.4 | 27.3 | > 91.2 | 69 | 40.6 | 21.3 | 29.7 | 43.4 | > 74.3 | 57.6 | > 79.5 | > 73.9 | 82.9 | 80.8 | 13.6 | 39.1 | 34.6 | 37.7
CC(C)C(C/C=C1/CC(CO)(COC(=O)C(C)(C)C)OC1=O)C(C)C (stereo not given) | 15.2 | 19 | 18.2 | 30.5 | 34.6 | 24.9 | 17.3 | 24.4 | 27.5 | 18 | 15.4 | 15.3 | 21.1 | 17.1 | 36.4 | 36.6 | 21.5 | 26.9 | 19.2 | 26
Cc1ccc(-c2cn3c(nc4ccccc43)c(-c3ccccc3)n2)cc1 | > 100 | > 100 | 49.2 | > 61.3 | > 100 | > 100 | > 73.9 | > 100 | > 100 | > 76.5 | > 100 | > 100 | > 100 | > 100 | > 100 | > 100 | > 100 | > 77 | > 100 | > 72.5
CC(C)(Cl)C(Br)CCC(CBr)=C(Cl)CCl (mixture of isomers) | > 8.02 | 5.6 | 3.04 | 4.97 | 5.15 | 3.75 | 3.96 | 3.49 | 3.63 | > 5.76 | 4.07 | > 10 | 5.56 | 3.5 | 3.14 | 5.21 | 3.46 | 4.14 | 4.13 | 3.71
N#CC(c1ccccc1)N(CCc1ccccc1)C(=O)c1ccccc1 (stereo not given) | > 100 | > 100 | > 91.4 | > 100 | > 100 | > 100 | > 100 | > 100 | > 100 | > 100 | > 84.7 | > 100 | > 100 | > 100 | > 100 | > 100 | > 100 | > 100 | > 100 | > 100
CCN(CC)CCOc1ccc(N2Cc3ccccc3C2=O)cc1 | > 10 | > 10 | > 10 | > 10 | > 10 | > 10 | > 10 | > 10 | > 10 | > 10 | > 10 | > 10 | > 10 | > 10 | > 10 | > 10 | > 10 | > 10 | > 10 | > 10
